Measurements from ChEMBL document CHEMBL5500378, “Discovery of 4-benzylpiperazinequinoline BChE inhibitor that suppresses neuroinflammation for the treatment of Alzheimer's disease” (Eur J Med Chem, 2024).
The source made the active and inactive calls. The rule behind the calls is not given here.

Experiments:
[1] = target: Cholinesterase (Equus caballus, UniProt P81908); assay: Inhibition of equine serum BChE using BTC as substrate incubated for 2 mins by Ellman's method; type: cell-free
[2] = target: Cholinesterase (Homo sapiens, UniProt P06276); assay: Inhibition of human BChE using BTC as substrate incubated for 2 mins by Ellman's method
Cholinesterase (Homo sapiens, UniProt P06276), sequence (P06276 whole entry): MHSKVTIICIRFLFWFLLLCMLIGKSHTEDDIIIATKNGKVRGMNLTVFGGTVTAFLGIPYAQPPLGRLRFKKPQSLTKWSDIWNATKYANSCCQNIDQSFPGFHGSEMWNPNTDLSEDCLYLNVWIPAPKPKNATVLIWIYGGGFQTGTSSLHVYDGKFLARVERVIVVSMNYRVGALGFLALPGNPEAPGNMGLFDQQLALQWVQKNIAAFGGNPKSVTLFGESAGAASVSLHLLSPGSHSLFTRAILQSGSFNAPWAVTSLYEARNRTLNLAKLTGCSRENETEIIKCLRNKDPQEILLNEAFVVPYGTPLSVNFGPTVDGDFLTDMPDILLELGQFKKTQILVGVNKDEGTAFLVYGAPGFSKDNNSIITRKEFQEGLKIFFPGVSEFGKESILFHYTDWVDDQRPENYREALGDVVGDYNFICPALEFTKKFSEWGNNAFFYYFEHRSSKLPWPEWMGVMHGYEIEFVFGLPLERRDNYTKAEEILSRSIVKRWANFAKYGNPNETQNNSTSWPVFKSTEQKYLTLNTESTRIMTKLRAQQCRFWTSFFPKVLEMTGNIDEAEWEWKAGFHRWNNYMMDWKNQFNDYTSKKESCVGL

[3] = target: Acetylcholinesterase (Electrophorus electricus) (UniProt O42275); assay: Inhibition of electric eel AChE using ATC as substrate at 10 uM incubated for 2 mins by Ellman's method relative to control
Acetylcholinesterase (Electrophorus electricus), sequence (O42275 24-633 limits assumed): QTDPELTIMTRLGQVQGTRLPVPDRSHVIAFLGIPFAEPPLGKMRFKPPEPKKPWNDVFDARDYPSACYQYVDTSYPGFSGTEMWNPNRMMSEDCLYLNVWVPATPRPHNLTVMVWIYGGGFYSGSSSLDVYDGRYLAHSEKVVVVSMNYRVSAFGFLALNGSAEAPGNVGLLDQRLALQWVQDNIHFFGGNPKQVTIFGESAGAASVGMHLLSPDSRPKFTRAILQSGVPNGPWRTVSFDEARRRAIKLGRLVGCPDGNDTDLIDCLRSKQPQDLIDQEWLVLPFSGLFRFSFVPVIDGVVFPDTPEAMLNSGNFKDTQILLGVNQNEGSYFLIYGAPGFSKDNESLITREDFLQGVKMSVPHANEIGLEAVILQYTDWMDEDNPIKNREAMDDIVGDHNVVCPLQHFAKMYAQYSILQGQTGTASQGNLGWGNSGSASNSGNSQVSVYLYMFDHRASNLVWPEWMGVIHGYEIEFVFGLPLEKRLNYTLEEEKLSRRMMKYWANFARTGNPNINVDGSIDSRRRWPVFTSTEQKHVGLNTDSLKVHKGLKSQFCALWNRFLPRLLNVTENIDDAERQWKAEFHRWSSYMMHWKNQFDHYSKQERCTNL

[4] = Metabolic stability in human liver microsomes assessed as half life at 2 uM incubated for 60 mins by LC-MS/MS analysis; type: ADME, Microsome
[5] = AUC (0 to t) in Sprague-Dawley rat at 10 mg/kg, IG measured for 2880 mins by LC-MS/MS analysis; type: ADME, organism-based; settings: in vivo, po
[6] = AUC (0 to infinity) in Sprague-Dawley rat at 10 mg/kg, IG measured for 2880 mins by LC-MS/MS analysis; type: ADME, organism-based; settings: in vivo, po
[7] = MRT (infinity) in Sprague-Dawley rat at 10 mg/kg, IG measured for 2880 mins by LC-MS/MS analysis; type: ADME, organism-based; settings: in vivo, po
[8] = Tmax in Sprague-Dawley rat at 10 mg/kg, iv measured for 2880 mins by LC-MS/MS analysis; type: ADME, organism-based; settings: in vivo
[9] = Cmax in Sprague-Dawley rat at 10 mg/kg, iv measured for 2880 mins by LC-MS/MS analysis; type: ADME, organism-based; settings: in vivo
[10] = AUC (0 to infinity) in Sprague-Dawley rat at 10 mg/kg, iv measured for 2880 mins by LC-MS/MS analysis; type: ADME, organism-based; settings: in vivo
[11] = MRT (infinity) in Sprague-Dawley rat at 10 mg/kg, iv measured for 2880 mins by LC-MS/MS analysis; type: ADME, organism-based; settings: in vivo, 48 h
[12] = Drug concentration in brain of ICR mouse at 10 mg/kg, IG measured at about 22 mins by LC-MS/MS analysis; type: ADME, organism-based; settings: po, read-out: Ct
[13] = Half life in plasma of ICR mouse at 10 mg/kg, IG measured at 10 to 240 mins by LC-MS/MS analysis; type: ADME, organism-based; settings: in vivo, po, time 10-240 min
[14] = Tmax in plasma of ICR mouse at 10 mg/kg, IG measured at 10 to 240 mins by LC-MS/MS analysis; type: ADME, organism-based; settings: in vivo, po, time 10-240 min
[15] = Cmax in plasma of ICR mouse at 10 mg/kg, IG measured at 10 to 240 mins by LC-MS/MS analysis; type: ADME, organism-based; settings: in vivo, po, time 10-240 min
[16] = AUC (0 to t) in plasma of ICR mouse at 10 mg/kg, IG measured at 10 to 240 mins by LC-MS/MS analysis; type: ADME, organism-based; settings: in vivo, po, time 10-240 min
[17] = Tmax in brain of ICR mouse at 10 mg/kg, IG measured at 10 to 240 mins by LC-MS/MS analysis; type: ADME, organism-based; settings: po, time 10-240 min
[18] = Ratio of AUC in brain to plasma of ICR mouse at 10 mg/kg, IG measured at 10 to 240 mins by LC-MS/MS analysis; type: ADME, organism-based; settings: po, time 10-240 min
[19] = Neurotoxicity against rat PC12 cells by MTT assay; type: toxicity, cell-based; settings: pc-12
[20] = Neurotoxicity against mouse BV-2 cells by MTT assay; type: toxicity, cell-based
[21] = system: L02; assay: Cytotoxicity against human L02 cells by MTT assay; type: toxicity, cell-based
[22] = system: BV-2; assay: Anti-inflammatory activity against mouse BV-2 cells assessed as decrease in LPS-induced IFN-gamma level at 2 to 6 uM preincubated for 1 hr followed by LPS addition and incubated overnight by ELISA; type: functional, cell-based; settings: dose 2-6 µM
[23] = system: PC-12; assay: Neuroprotective activity against H2O2-induced neuronal damage in rat PC12 cells assessed as increase in cell viability at 20 uM pretreated for 1 hr followed by H2O2 addition measured after 24 hrs by MTT assay relative to control; type: functional; settings: time 25 hrs
[24] = system: SH-SY5Y; assay: Neuroprotective activity against Amyloid beta(1 to 42)-induced neuronal damage in human SH-SY5Y cells assessed as increase in cell survival at 1 to 10 uM pretreated for 1 hr followed by Amyloid beta(1 to 42) addition measured after 24 hrs by MTT assay; type: functional, cell-based; settings: dose 1-10 µM, time 25.0 hrs
[25] = system: BV-2; assay: Inhibition of ROS production in Amyloid beta(1 to 42)-induced neuronal damage in mouse BV-2 cells assessed as decrease in green fluorescence intensity at 5 uM by microscopic analysis; type: functional, cell-based
[26] = system: BV-2; assay: Inhibition of ROS production in LPS-induced mouse BV-2 cells assessed as decrease in green fluorescence intensity at 2.5 to 10 uM pretreated for 1 hr followed by LPS addition and incubated overnight by DCFH-DA staining based analysis; type: functional, cell-based; settings: dose 2.5-10 µM
[27] = system: BV-2; assay: Anti-inflammatory activity against mouse BV-2 cells assessed as decrease in LPS-induced TNF-alpha level at 5 uM preincubated for 1 hr followed by LPS addition and incubated overnight by immunofluorescence based analysis; type: functional, cell-based
[28] = system: BV-2; assay: Anti-inflammatory activity against mouse BV-2 cells assessed as decrease in LPS-induced IL-1beta level at 5 uM preincubated for 1 hr followed by LPS addition and incubated overnight by immunofluorescence based analysis; type: functional, cell-based
[29] = Toxicity in ICR mouse assessed as body weight change administered orally for 14 days consecutively; settings: in vivo, po, 336 h, time 14 day
[30] = Toxicity in ICR mouse model of Amyloid beta(1 to 42)-induced cognitive impairment assessed as body weight change at 10 mg/kg, IG for 12 days; type: organism-based; settings: in vivo, po, 288 h, time 12 day
[31] = Toxicity in ICR mouse model of Amyloid beta(1 to 42)-induced cognitive impairment assessed as change in body appearance at 10 mg/kg, IG for 12 days; type: organism-based; settings: in vivo, po, 288 h, time 12 day
[32] = system: Mus musculus; assay: Improvement of learning ability in ICR mouse model of Amyloid beta(1 to 42)-induced cognitive impairment at 10 mg/kg, IG for 12 days by Moris water maze test; type: functional, organism-based; settings: time 12.0 day
[33] = system: Mus musculus; assay: Neuroprotective activity in ICR mouse model of Amyloid beta(1 to 42)-induced cognitive impairment assessed as decrease in Amyloid beta expression in brain at 10 mg/kg, IG for 12 days by ELISA; type: functional, organism-based; settings: time 12.0 day
[34] = system: Mus musculus; assay: Neuroprotective activity in ICR mouse model of Amyloid beta(1 to 42)-induced cognitive impairment assessed as increase in AChE expression in brain at 10 mg/kg, IG for 12 days by ELISA; type: functional, organism-based; settings: time 12.0 day
[35] = system: Mus musculus; assay: Anti-inflammatory activity in ICR mouse model assessed as reversal of LPS-induced body weight loss at 10 mg/kg, IG pretreated for 10 days followed by LPS treatment for 4 days; type: functional, organism-based; settings: time 14.0 day
[36] = system: Mus musculus; assay: Anti-inflammatory activity in ICR mouse model assessed as reduction in trajectory confusion at 10 mg/kg, IG pretreated for 10 days followed by LPS treatment for 4 days by Moris water maze test; type: functional, organism-based; settings: time 14.0 day
[37] = system: Mus musculus; assay: Anti-inflammatory activity in ICR mouse model assessed as reduction in serum IL-1beta level at 10 mg/kg, IG pretreated for 10 days followed by LPS treatment for 4 days by ELISA; type: functional, organism-based; settings: time 14.0 day

Cholinesterase (Equus caballus, UniProt P81908), sequence (P81908 whole entry): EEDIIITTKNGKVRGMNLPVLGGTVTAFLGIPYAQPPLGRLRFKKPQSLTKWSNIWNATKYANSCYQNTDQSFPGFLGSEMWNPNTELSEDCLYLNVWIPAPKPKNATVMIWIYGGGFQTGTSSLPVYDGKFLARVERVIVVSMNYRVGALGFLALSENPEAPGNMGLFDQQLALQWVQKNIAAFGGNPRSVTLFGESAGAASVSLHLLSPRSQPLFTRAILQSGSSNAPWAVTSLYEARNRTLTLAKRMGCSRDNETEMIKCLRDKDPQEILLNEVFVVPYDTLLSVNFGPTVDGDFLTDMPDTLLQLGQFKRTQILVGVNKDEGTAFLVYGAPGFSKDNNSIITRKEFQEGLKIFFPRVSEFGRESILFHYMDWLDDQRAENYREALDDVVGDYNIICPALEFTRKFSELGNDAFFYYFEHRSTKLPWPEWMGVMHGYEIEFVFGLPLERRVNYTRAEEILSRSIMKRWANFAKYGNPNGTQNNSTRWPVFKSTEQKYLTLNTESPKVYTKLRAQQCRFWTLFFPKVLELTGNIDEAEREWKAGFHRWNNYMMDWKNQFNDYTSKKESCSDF

Question: Which results are given for CCCc1ccc(C(=O)Nc2cnc3ccccc3c2N2CCN(Cc3ccccc3)CC2)cc1?
Answer: IC50 [1]: 60 nM; IC50 [2]: 160 nM; inhibition [3]: < 50%; half-life at 2 µM [4]: 45.7 min; AUC(0-t) at 48 h [5]: 5650 ng·h/mL; AUC(0-inf) [6]: 5650 ng·h/mL; MRT inf [7]: 1070 min; Tmax [8]: 1 min; Cmax [9]: 7120 ng/mL; AUC(0-inf) [10]: 6070 ng·h/mL; MRT [11]: 987 min; concentration at 22 min [12]: 554 ng/mL; t1/2 [13]: 65.38 min; Tmax [14]: 18 min; Cmax [15]: 238.2 ng/mL; AUCt [16]: 20051.76 ng·h/mL; Tmax [17]: 22 min; Kp [18]: 1.96; Activity [19]: Not Active; Activity [20]: Not Active; Activity [21]: Non-Toxic; Activity [22]: Active; Activity [23]: >80%; Activity [24]: Active; inhibition [25]: Active; inhibition [26]: Active; Activity [27]: Active; Activity [28]: Active; Activity [29]: Non-Toxic; Activity [30]: Non-Toxic; Activity [31]: Non-Toxic; Activity [32]: Active; Activity [33]: Active; Activity [34]: Active; Activity [35]: Active; Activity [36]: Active; Activity [37]: Active
